Literature values in patent publication US9066886B2, “Transdermal drug delivery system containing granisetron” (TAHO PHARMACEUTICALS, LTD., priority 2008, dated 2015).

Settings: tablet with 1 mg of granisetron; from Korean Patent Laid-Open Publication No. 10-2005-0116365

Cmax: 3.6 ng/mL
Structure (SMILES): CN1C2CCCC1CC(NC(=O)c1nn(C)c3ccccc13)C2 (stereo not shown) [granisetron]
